Like-named read-outs stand apart in the source and are kept apart here.
How the values were obtained:
Experiment in all cases: Inhibitory effect on human liver microsome CYP450 enzyme
Assay type in all cases: in vitro ADME
CYP2D6 = molecular target: T1, CYP2D6 (Homo sapiens, UniProt P10635); conditions: human liver microsomes, substrate Dextromethorphan
T1 construct: 0.05 mg/mL liver microsomes (BioIVT, IHG) phosphate buffer solution; tissue BioIVT IHG; host or cells: human liver microsomes
Protocol: (§1) In this experiment, the compound, liver microsomes and different CYP isoform enzyme substrates were incubated in a 37°C water bath, the amount of substrate metabolites generated was measured, and the inhibitory effect of the compound of the present disclosure on CYP enzyme was evaluated based on the IC50 value.
(§2) i. The compound was diluted with DMSO (Aladdin, catalog number: D103273-500ml) to concentrations of 0, 0.02, 0.06, 0.2, 0.6, 2 and 6 mM. The positive reference inhibitors for each CYP isoform and their concentrations are shown in Table 4 Table 4 Positive reference inhibitors for CYP isoform enzymes and their concentrations
(§3) ii. Phosphate buffer (sigma: V900050-500G) was used to formulate the substrate solution for each CYP isoform enzyme. Table 5 The substrate and the concentration thereof for CYP isoform enzyme
(§4) iii. Sample incubation. 1 µL of each concentration of the compound and positive reference inhibitor for CYP isoform enzyme were taken and placed into a 96-deep well plate (A-gen: P-1.0-RD-96-S), and 169 µL of 0.05 mg/mL liver microsomes (BioIVT, IHG) phosphate buffer solution (using 0.2 mg/mL liver microsomes for CYP2C19) was added. After uniform mixing, the plate was placed in a 37°C water bath (Shanghai Jinghong Experimental Equipment Co., Ltd., DK-500) with shaking for pre-incubation for 15 min. 10 µL of substrate (adding 1 µL of substrate for CYP3A4-Testosterone) and 20 µL of 10 mM NADPH phosphate buffer solution (MCE, HYF003/CS-4998) were added. After uniform mixing, the plate was incubated in a water bath with shaking for the following time: CYP1A2: 20 min, CYP2C9: 10 min, CYP2C19: 10 min, CYP2D6: 10 min, CYP3A4-Testosterone: 10 min, CYP3A4-Midazolam: 5 min. 400 µL of glacial acetonitrile/methanol (v/v, 1:1) containing an internal standard (500 nM tolbutamide, 5 nM terfenadine) was added to terminate the reaction. After centrifugation at 4000 rpm at 4°C for 40 min, the supernatant was taken and diluted with pure water according to the response of the metabolite of the substrate, and then UPLC-MS/MS (Sciex, Q-Trap 4500) was used for detection to obtain the peak area. The C18 chromatographic column was Kinetex 2.6u C18 100A (50 mm*3 mm).
(§5) The inhibitory effect of the compound on each P450 enzyme in human liver microsomes was calculated as the percentage of reduced metabolite formation compared with the non-inhibitory control (i.e. blank DMSO). The IC50 value of the compound for each P450 enzyme in human liver microsomes was calculated with the logarithm of the remaining activity and the inhibitor concentration using Graphpad Prism software. The calculation equation was as follows: Peak area ratio = compound peak area / internal standard peak area [formula] [formula]
(§6) In Graphpad Prism software, the IC50 value was calculated using the standard four-parameter curve fitting algorithm.

CYP1A2 = molecular target: T2, CYP1A2 (Homo sapiens, UniProt P05177); conditions: human liver microsomes, substrate Phenacetin
T2 construct: 0.05 mg/mL liver microsomes (BioIVT, IHG) phosphate buffer solution; tissue BioIVT IHG; host or cells: human liver microsomes
T2 sequence (P05177 1-516): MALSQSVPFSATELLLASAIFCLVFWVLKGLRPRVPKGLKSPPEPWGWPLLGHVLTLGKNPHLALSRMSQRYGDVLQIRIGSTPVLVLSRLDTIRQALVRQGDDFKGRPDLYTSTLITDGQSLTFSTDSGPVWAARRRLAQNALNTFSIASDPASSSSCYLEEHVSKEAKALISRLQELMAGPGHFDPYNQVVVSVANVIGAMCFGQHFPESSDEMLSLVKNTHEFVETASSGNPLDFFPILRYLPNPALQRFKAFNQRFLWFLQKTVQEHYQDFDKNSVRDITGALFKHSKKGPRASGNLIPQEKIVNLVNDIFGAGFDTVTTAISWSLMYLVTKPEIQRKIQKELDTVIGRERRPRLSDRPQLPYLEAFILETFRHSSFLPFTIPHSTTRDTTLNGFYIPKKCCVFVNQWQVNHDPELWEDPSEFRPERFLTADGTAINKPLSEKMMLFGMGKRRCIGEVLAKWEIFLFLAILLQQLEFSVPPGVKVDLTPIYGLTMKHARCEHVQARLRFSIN
Protocol: as §1, §2, §3, §4, §5, §6

CYP2C9 = molecular target: T3, CYP2C9 (Homo sapiens, UniProt P11712); conditions: human liver microsomes, substrate Diclofenac Sodium
T3 construct: 0.05 mg/mL liver microsomes (BioIVT, IHG) phosphate buffer solution; tissue BioIVT IHG; host or cells: human liver microsomes
T3 sequence (P11712 whole entry): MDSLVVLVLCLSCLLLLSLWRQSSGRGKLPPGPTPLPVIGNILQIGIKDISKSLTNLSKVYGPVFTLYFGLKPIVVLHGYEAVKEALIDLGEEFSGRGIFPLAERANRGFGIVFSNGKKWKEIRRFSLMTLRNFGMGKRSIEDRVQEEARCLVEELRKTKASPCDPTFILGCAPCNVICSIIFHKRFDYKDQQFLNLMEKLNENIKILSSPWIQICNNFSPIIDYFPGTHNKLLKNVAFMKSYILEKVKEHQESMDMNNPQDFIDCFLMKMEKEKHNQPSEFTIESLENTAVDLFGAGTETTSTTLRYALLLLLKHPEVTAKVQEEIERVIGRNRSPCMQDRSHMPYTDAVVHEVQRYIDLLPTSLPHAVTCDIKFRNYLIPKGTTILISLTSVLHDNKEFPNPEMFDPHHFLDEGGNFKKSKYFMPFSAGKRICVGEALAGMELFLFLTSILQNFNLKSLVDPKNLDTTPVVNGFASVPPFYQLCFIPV
Protocol: as §1, §2, §3, §4, §5, §6

CYP2C19 = molecular target: T4, CYP2C19 (Homo sapiens, UniProt P33261); conditions: human liver microsomes, substrate Mephenytoin
T4 construct: (using 0.2 mg/mL liver microsomes for CYP2C19); tissue BioIVT IHG; host or cells: human liver microsomes
T4 sequence (P33261 whole entry): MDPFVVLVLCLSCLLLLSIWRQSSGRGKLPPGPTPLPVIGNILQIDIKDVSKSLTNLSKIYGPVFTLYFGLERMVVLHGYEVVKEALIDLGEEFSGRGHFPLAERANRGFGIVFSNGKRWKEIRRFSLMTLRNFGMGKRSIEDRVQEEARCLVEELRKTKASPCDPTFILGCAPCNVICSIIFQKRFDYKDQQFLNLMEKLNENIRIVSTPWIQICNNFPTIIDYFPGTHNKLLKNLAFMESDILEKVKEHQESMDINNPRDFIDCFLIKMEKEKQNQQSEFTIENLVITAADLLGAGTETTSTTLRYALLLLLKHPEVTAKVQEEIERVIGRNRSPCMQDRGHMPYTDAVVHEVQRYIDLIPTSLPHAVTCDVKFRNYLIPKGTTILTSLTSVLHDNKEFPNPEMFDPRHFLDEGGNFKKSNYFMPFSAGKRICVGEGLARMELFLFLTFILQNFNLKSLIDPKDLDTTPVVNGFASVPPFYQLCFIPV
Protocol: as §1, §2, §3, §4, §5, §6

CYP3A4 = molecular target: T5, CYP3A4 (Homo sapiens, UniProt P08684); conditions: liver microsomes
T5 construct: 0.05 mg/mL liver microsomes (BioIVT, IHG) phosphate buffer solution; tissue BioIVT IHG; host or cells: human liver microsomes
T5 sequence (P08684 whole entry): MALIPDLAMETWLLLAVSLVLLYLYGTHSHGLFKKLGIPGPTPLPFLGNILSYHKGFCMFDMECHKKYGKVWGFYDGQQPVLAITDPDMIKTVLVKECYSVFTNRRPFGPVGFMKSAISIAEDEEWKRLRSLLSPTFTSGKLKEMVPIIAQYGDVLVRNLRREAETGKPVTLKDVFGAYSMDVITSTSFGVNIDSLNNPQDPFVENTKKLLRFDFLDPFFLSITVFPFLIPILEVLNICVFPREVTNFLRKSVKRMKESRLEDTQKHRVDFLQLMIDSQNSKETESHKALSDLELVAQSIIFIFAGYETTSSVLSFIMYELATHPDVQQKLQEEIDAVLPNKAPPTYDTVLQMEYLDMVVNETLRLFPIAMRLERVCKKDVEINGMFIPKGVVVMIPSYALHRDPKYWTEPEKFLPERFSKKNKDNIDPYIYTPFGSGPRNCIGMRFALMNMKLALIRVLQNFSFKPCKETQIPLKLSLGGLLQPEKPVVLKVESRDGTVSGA
Protocol: as §1, §2, §3, §4, §5, §6

T1 sequence (P10635 whole entry): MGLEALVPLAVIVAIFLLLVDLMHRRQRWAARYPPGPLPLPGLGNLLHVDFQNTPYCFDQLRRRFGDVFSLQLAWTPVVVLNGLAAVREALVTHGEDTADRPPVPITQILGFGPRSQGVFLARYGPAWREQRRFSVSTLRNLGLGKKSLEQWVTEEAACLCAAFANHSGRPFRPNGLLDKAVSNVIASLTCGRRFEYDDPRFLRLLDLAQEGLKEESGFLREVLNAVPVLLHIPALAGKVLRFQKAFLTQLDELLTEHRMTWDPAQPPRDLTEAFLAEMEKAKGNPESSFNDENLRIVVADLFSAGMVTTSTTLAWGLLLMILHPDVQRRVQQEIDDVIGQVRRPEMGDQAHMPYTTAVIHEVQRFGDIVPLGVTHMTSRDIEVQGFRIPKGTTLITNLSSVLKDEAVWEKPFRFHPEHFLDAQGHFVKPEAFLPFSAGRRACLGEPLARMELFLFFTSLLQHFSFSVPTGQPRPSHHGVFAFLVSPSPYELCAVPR

Cn1c(=O)n(C2CCC(=O)NC2=O)c2cccc(N3CCC(N4CCN(C[C@H]5CC[C@H](n6cc(-n7cc(-c8cnn9ccc(N%10CCC[C@H](O)C%10)nc89)nn7)c(C(F)F)n6)CC5)CC4)CC3)c21 (stereo partly drawn) [Example 146]
IC50 (CYP2D6): > 30 µM
IC50 (CYP1A2): > 30 µM
IC50 (CYP2C9): > 30 µM
IC50 (CYP2C19): 18.4 µM
IC50 (CYP3A4; substrate Midazolam, read-out: IC50 (µM) CYP3A4-M): > 30 µM
IC50 (CYP3A4; substrate Testosterone, read-out: IC50 (µM) CYP3A4-T): > 30 µM
